Our source for the TGI values is PubChem BioAssay (NCI).

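Method: 48-hour compound exposure of cells in 96-well plates, five concentrations, linear interpolation of endpoints. The concentration for full growth arrest is given as TGI.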

Common to all, as to assay: NCI tumour cell line growth inhibition, 48 h
The test system of assay [1] is COLO 205 colon.
Assay [2] relates to DU-145 prostate.
Assay [3] deals with HCT-116 colon.
Assay [4] deals with HCT-15 colon.
The subject of assay [5] is HL-60(TB) leukemia.
Assay [6] deals with HS 578T breast.
In assay [7] the test system is LOX IMVI melanoma.
Assay [8] concerns M14 melanoma.
Assay [9] concerns RXF 393 renal.
In assay [10] the test system is SF-268 CNS.
The subject of assay [11] is SF-295 CNS.
Assay [12] deals with SK-MEL-2 melanoma.
Assay [13] deals with SR leukemia.
Assay [14] has as its system T-47D breast.
Assay [15] deals with UACC-257 melanoma.
Assay [16] relates to UO-31 renal.

With `O=C1C=CC2(C=C1)C[C@H](NC(=O)OCc1ccccc1)C(=O)O2`, the TGI is 18.3 µM in assay [1]; 85.3 µM in [2]; 40.3 µM in assay [3]; 27 µM in assay [4]; 7.58 µM in assay [5]; over 100 µM in assay [6]. The TGI in assay [7] was 31.8 µM; in [8], 32.6 µM; in [9] it was 24.9 µM; in assay [10], 32.3 µM; in [11], 49.5 µM; in assay [12], 40 µM. For the same compound, the TGI was found to be 4.33 µM in assay [13], 49.9 µM in [14], 33.2 µM in assay [15] and 39.9 µM in assay [16].

Regarding `Cc1nnc(Sc2nc(C#N)c(C#N)nc2Sc2nnc(C)s2)s1`, the TGI is over 53.3 µM in assay [1]; 36.6 µM in [2]; over 64.3 µM in [3]; 7.42 µM in assay [4]; 8.83 µM in assay [5]; 99.4 µM in assay [6]. In addition, the TGI was found to be 9.18 µM in [7]; 62.9 µM in [8]; 6 µM in [9]; 73.2 µM in assay [10]; 73.8 µM in assay [11]; 44.7 µM in assay [12]. Further, the TGI was over 26.4 µM in assay [13], 12.9 µM in assay [14], 62 µM in assay [15] and 23.9 µM in assay [16].

With `CC(=O)/C(C=Nc1c(C)n(C)n(C)c1=O)=C(/O)c1ccccc1`, the TGI in assay [1], in assay [2], in [3], in assay [4], in assay [5] and in [6] was over 50 µM throughout. Moreover, the TGI in [7], in [8], in assay [9], in assay [10], in [11] and in assay [12] was over 50 µM in each case. Also, the TGI in assay [13], in [14], in [15] and in assay [16] was over 50 µM throughout.

As to `COC(=O)C1=NN2c3ccccc3CN([C@@H](C)c3ccccc3)C(=O)[C@@H]2[C@H]1c1ccccc1`, the TGI in [1], in [2], in assay [3], in assay [4], in [5] and in [6] was over 100 µM throughout. The TGI in assay [7], in assay [8], in assay [9], in assay [10], in [11] and in assay [12] was over 100 µM throughout. Besides, the TGI in assay [13], in [14], in assay [15] and in assay [16] was over 100 µM in each case.

Consider `COC1CC(O[C@H]2CC[C@@]3(C)[C@@H](CC[C@]4(O)[C@@H]3CC[C@]3(C)[C@@H](C(C)=O)[C@H](OC(=O)CC(C)C)[C@@H](OC(=O)c5ccccc5)[C@@]34O)C2)OC(C)C1OC1CC(OC)C(OC2OC(C)C(O)C(OC)C2O)C(C)O1` (some centres undefined), for which the TGI in [1] was 12.4 µM; in assay [2] it was over 25 µM; in assay [3] it was over 25 µM; in assay [4], over 25 µM; in [5], over 25 µM; in [6], over 25 µM. In addition, the TGI in assay [7], in [8], in assay [9], in assay [10], in assay [11] and in assay [12] was over 25 µM in each case. The TGI in assay [13], in assay [14], in [15] and in assay [16] was over 25 µM each time.

For `CC[C@H](C)[C@H](NC(=O)[C@@]1(O)[C@H](O)[C@]2(CC)C=CCN3CC[C@@]4(c5cc(Br)c(OC)cc5N(C)[C@@H]14)[C@@H]32)C(=O)OC`, the TGI is 29.2 µM in assay [1]; over 100 µM in assay [2]; over 100 µM in assay [3]; over 100 µM in [4]; 70.8 µM in assay [5]; 77.1 µM in assay [6]. Besides, the TGI in assay [7] is 35.5 µM; in assay [8] it was 84.5 µM; in assay [9], over 100 µM; in [10], over 100 µM; in assay [11] it was over 100 µM; in assay [12], over 100 µM. The TGI in [13] is over 100 µM; in assay [14] it was over 100 µM; in assay [15] it was 62.1 µM; in assay [16] it was over 100 µM.

`Nc1nc(=S)n(-c2ccc(Cl)cc2)c2nc3ccccc3cc12`: the TGI in assay [1], in assay [2], in [3], in assay [4], in assay [5] and in [6] was over 100 µM throughout. For the same compound, the TGI in [7], in assay [8], in assay [9], in assay [10], in [11] and in assay [12] was over 100 µM throughout. For the same compound, the TGI in [13], in assay [14], in assay [15] and in [16] was over 100 µM each time.

As to `O=c1oc2ccc3ccccc3c2cc1-c1nc2ccc([N+](=O)[O-])cc2o1`, the TGI in assay [1], in assay [2], in assay [3], in [4], in assay [5] and in assay [6] was over 100 µM each time. Further, the TGI was over 91.3 µM in assay [7]; over 75.3 µM in assay [8]; 19.1 µM in assay [9]; over 90.2 µM in [10]; over 49.5 µM in assay [11]; over 100 µM in assay [12]. For the same compound, the TGI in assay [13] was over 100 µM; in [14], over 100 µM; in assay [15], over 100 µM; in assay [16], over 92.1 µM.

With `CC1(C)C2CCC(O)(C2)C1N` (centres undefined), the TGI was over 100 µM in assay [1]; over 100 µM in [2]; over 100 µM in [3]; over 100 µM in assay [4]; over 31.6 µM in assay [5]; over 100 µM in [6]. Moreover, the TGI in assay [7], in [8], in assay [9], in [10], in assay [11] and in assay [12] was over 100 µM throughout. The TGI in assay [13], in assay [14], in assay [15] and in assay [16] was over 100 µM throughout.
